# Measured values as given in patent EP0863156A1, “Peptides useful as somatostatin antagonists” (American Cyanamid Company, priority 1997, dated 1998).
# Bridge positions count the residues as written; N and C are the ends. Square brackets hold non-standard residues; d marks the D form. Peptide text beside a SMILES is read from it.
# Key:
# SSTR2 [1] = molecular target: T1, SSTR2 (Rattus norvegicus, UniProt P30680); test: cAMP accumulation in forskolin-stimulated GH4C1/SSTR2 cells (SPA radioimmunoassay); type: cell-based; parameters: expressed in transfected cells; host or cells: GH4C1 rat pituitary tumor cells; settings: GH4-C1; test peptide 100 µM; percent reversal of SSTR2 activation by SRIF or MK678; 0% = forskolin plus agonist, 100% = forskolin alone; read-out: cAMP Assay Intrinsic activity
# Protocol: This is the basis of a common assay for SRIF agonists and antagonists, whereby SRIF agonists reduce artificially stimulated cAMP levels, and SRIF antagonists reverse the effect of SRIF. […] This increases the response to SRIF and provides a greater dynamic range for the measurement of SRIF antagonist activity.
# Stimulation of cells. GH4C1/SSTR2 cells, grown in DMEM with 10% bovine serum, are released from a tissue culture dish by incubation for several minutes at 37° C with PBS containing 0.5 mM EDTA. Cells are washed in induction buffer (PBS containing 100 µM IBMX (an inhibitor of cAMP breakdown) and 2 mM CaCl2) at room temperature, and resuspended at 2 x 10^6/mL in induction buffer. Into each well of a 96-well tray are added 50 µL of a 2 X concentration of stimulants in induction buffer. […] To initiate stimulation of the cells, 50 µL (100,000) cells are added to each well, mixed by shaking 10 seconds on a plate shaker and placed at 37° C for 15 minutes. Stimulation is arrested and cells are lysed by adding 15 µL 0.33 N HCI to each well and incubating the plate for 30 minutes at 37° C. Samples are neutralized by addition of 15 µL 0.25 N NaOH/50 mM Hepes pH 7.4. Baseline cAMP levels are determined in samples with no added forskolin or SRIF, and each treatment is performed in triplicate.
# cAMP assay. To measure accumulated cAMP in the samples, a radioimmunoassay is employed. The scintillation proximity assay (SPA, Amersham, Arlington Heights, IL) allows the rapid measurement of ^125I cAMP bound to a specific antibody without separating bound radioligand from free radioligand. Each of the following reagents (15 µL) are added per well in a 96-well tray: supernatants from the cell stimulation; ^125I cAMP; SPA beads conjugated to monkey anti-rabbit IgG antibodies; and rabbit anti-cAMP antibodies. For the standard curve, known amounts of cAMP (0.2 - 12.8 pmol) are added in place of cell supernatants. The 96-well tray is sealed, shaken at room temperature overnight and measured for bound radioligand in a MicroBeta liquid scintillation counter (Wallac, Gaithersburg. MD).
# The intrinsic activity of an SRIF antagonist is the percent reversal of the SSTR2 activation by SRIF or MK678, wherein 0% is defined by cAMP levels in samples treated with forskolin plus SRIF or MK678 and 100% is the cAMP level measured after treatment with forskolin alone. Therefore, increased intrinsic activity of a test compound indicates increased antagonist activity of said test compound.
# An inverse agonist is a compound that is not only a pure antagonist (i.e. lacking agonist activity), but also blocks the constitutive activity of an unoccupied receptor. One indication of inverse agonist activity is the ability of a SRIF antagonist to increase cAMP levels in the absence of added SRIF.
# SSTR2 [2] = molecular target: T1, SSTR2; test: Competitive binding of 125I labeled S-14 to membranes of cells expressing transfected SSTR2 (SPA); parameters: expressed in transfected cells
# Protocol: Membrane preparation. Tissue culture cell lines expressing transfected cDNA clones of SSTR2 and SSTR5 are used as a source of plasma membranes which specifically bind ^125I labeled S-14 (Amersham, Arlington Heights, IL). Cells are removed from culture dishes by incubation at 4°C for 5 minutes in PBS containing 1 mM EDTA, spun down (2,000 rpm, 5') and resuspended in 15 mL homogenization buffer (1 mM sodium bicarbonate pH 7.2, 1 mM EDTA, 1 mM EGTA and the following protease inhibitors: leupeptin and aprotenin at 5 µg/mL and benzamidine and bacitracin at 100 µg/mL). Cells are given 20 strokes with a Dounce homogenizer on ice and spun at 2000 rpm for 10 minutes. Membranes are isolated from the supernatant by centrifugation at 17,000 rpm for 30 minutes. The membrane pellet is washed once in 15 mL homogenization buffer and once in storage buffer (25 mM Tris pH 7.4 containing protease inhibitors). […] The membrane pellet is resuspended in storage buffer, measured for protein concentration (BioRad, CA) and stored at -80°C.
# Binding assay. […] Bound radioligand is determined by counting in a Microbeta Liquid Scintillation counter (Wallac, Gaithersburg, MD). Binding data is plotted and IC50 and Ki values are calculated for test compounds using Prism software (Graphpad Software Inc., San Diego, CA) and are shown in Table V. Binding is expressed as Ki, µM.
# T1 sequence (P30680 whole entry): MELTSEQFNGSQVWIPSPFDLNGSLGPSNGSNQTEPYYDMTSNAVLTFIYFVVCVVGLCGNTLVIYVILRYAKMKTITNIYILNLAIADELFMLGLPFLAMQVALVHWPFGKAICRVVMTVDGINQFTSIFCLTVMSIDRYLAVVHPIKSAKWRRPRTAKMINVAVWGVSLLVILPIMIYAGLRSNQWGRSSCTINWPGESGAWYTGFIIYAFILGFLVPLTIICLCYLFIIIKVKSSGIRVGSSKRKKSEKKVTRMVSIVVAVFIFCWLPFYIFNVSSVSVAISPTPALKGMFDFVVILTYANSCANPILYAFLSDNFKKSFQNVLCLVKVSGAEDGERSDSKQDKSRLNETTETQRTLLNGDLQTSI
smiles,measurement,setting,value
"CC[C@@H](C)[C@H]1NC(=O)[C@@H](Cc2ccccc2)NC(=O)[C@@H](Cc2c[nH]cn2)NC(=O)[C@@H](N)CSSC[C@@H](C(=O)O)NC(=O)[C@@H](Cc2ccccc2)NC(=O)[C@@H](Cc2c[nH]c3ccccc23)NC(=O)[C@@H](CCCNC(=N)N)NC1=O [Peptide 34, ss C-h-f-i-r-w-f-C] (H-C[dH][dF][dI][dR][dW][dF]C-OH; disulfide 1-8)",Emax,SSTR2 [1],25.9%
same,Ki,SSTR2 [2],1.95 µM
